Blank lines part the entries; values can stand above or below the compound they belong to.
What was measured:
SqrR = biological target: T1, SqrR (Rhodobacter capsulatus, UniProt D5AT91); test: fluorescence anisotropy of DNA dissociation; LC-ESI-MS of adducts; assay type: binding; conditions: covalent; pseudo-first-order oxidation of C41/C107; 20-fold excess sulfane sulfur, persulfide made in situ; DNA-bound SqrR; 25 mM HEPES pH 7.0, 400 mM NaCl, 1 mM EDTA, 25°C
T1 construct: recombinant, full-length, reduced C9S protomer 12295 amu
T1 sequence (D5AT91 15-124): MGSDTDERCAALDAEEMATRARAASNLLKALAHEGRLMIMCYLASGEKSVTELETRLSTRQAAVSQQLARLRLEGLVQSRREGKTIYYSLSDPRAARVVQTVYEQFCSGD
From the text: fluorescence anisotropy of DNA dissociation; LC-ESI-MS of adducts on SqrR

SQR [1] = biological target: T2, SQR (Rhodobacter capsulatus, UniProt D5APH8); test: co-purification; assay type: binding; conditions: noncovalently bound
T2 sequence (D5APH8 1-427): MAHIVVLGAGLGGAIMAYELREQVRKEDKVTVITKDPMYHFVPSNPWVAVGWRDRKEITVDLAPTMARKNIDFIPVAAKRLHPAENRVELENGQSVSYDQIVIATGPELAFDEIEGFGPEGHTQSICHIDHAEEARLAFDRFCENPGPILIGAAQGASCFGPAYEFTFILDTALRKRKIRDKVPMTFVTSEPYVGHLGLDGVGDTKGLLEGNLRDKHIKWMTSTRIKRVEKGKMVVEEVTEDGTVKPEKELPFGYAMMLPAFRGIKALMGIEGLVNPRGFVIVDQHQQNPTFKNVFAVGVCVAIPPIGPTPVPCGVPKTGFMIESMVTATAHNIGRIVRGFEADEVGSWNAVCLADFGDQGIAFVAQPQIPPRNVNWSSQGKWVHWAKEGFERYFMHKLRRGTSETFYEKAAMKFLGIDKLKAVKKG

SQR [2] = biological target: T2, SQR; test: steady-state sulfide:quinone reductase assay; assay type: biochemical; conditions: electron acceptor at 100 μM; 4 mM KCN as S0 acceptor, Na2S 0-640 μM, 100 nM SQR
[3] = tested on: SqrR C9S (reduced) (Rhodobacter capsulatus (SB1003?)); test: fluorescence anisotropy; conditions: SqrR titrated into fluorescein-labeled operator in quartz cuvette without TCEP, buffer, salt, pH and temperature not given in the …
[4] = tested on: SqrR C9S, CysSSH-treated (oxidized) (Rhodobacter capsulatus (SB1003?)); test: fluorescence anisotropy; conditions: SqrR titrated into fluorescein-labeled operator in quartz cuvette without TCEP, buffer, salt, pH and temperature not given in the …
[5] = tested on: SqrR C9S, GSSH-treated (oxidized) (Rhodobacter capsulatus (SB1003?)); test: fluorescence anisotropy; conditions: SqrR titrated into fluorescein-labeled operator in quartz cuvette without TCEP, buffer, salt, pH and temperature not given in the …

kox [x 10^-3 s^-1]^a / CSSH (SqrR): 3.8 ± 0.1 x 10^-3 s^-1
Compound: N[C@@H](CSS)C(=O)O [cysteine persulfide]

Compound: Cc1cc2nc3c(=O)[nH]c(=O)nc-3n(C[C@H](O)[C@H](O)[C@H](O)COP(=O)(O)OP(=O)(O)OC[C@H]3O[C@@H](n4cnc5c(N)ncnc54)[C@H](O)[C@@H]3O)c2cc1C [flavin adenine dinucleotide]
co-purification (SQR [1]): recombinant R. capsulatus SQR noncovalently bound with flavin adenine dinucleotide (FAD)

kox [x 10^-3 s^-1]^a / GSSH (SqrR): 0.86 ± 0.05 x 10^-3 s^-1
Compound: N[C@@H](CCC(=O)N[C@@H](CSS)C(=O)NCC(=O)O)C(=O)O [glutathione persulfide]

Compound: CC1=CC(=O)c2ccccc2C1=O [menadione]
steady-state sulfide:quinone reductase assay (SQR [2]): the steady-state activity was higher with MD

Compound: COC1=C(OC)C(=O)C(CC=C(C)C)=C(C)C1=O [ubiquinone-1]
steady-state sulfide:quinone reductase assay (SQR [2]): the activity with UQ-1 was also sufficient for further analyses

Compound: TGACATATTCACAACTCGGAATGTAA / TTACATTCCGAGTGGTGAATATGTCA
Ka [3]: 270 10^5 M-1 | Ka [4]: 1.8 10^5 M-1 | Ka [5]: 2.5 10^5 M-1

Reference: paper PMC9995734, “Polysulfide metabolizing enzymes influence SqrR-mediated sulfide-induced transcription by impacting intracellular polysulfide dynamics” (PNAS Nexus, 2023)
